These results are taken from patent US4207325A, “4-Substituted pyrazoles” (Bayer Aktiengesellschaft, priority 1975, dated 1980).

This experiment concerns venous thrombs (left jugular vein of rats). As to the kind of experiment: antithrombotic action in rats: thromb formation in the supercooled left jugular vein, thromb isolated and weighed 4 hours later. It counts as in vivo. The note with it: 10 mg/kg, administered orally. As for the experimental part:
The left jugular vein of rats weighing 170 to 180 g was exposed under ether narcosis and supercooled to -12° C. for 2 minutes to stimulate thromb formation. The thromb was isolated from the vein 4 hours later, and was weighed. The test animals were given the test preparation in tragacanth mucilage immediately before supercooling the wall of the blood vessel. As a result, the protective antithrombotic activity was tested in the first 4 hours after stimulating thromb formation.

As to `Cc1nn(C(C)c2ccc(Cl)c(Cl)c2)c(OC(=O)c2ccc(F)cc2)c1-c1ccccc1` (stereo not drawn) [Example 1, 5-(4-Fluorobenzoyloxy)-3-methyl-phenyl-1-(α-methyl-3,4-dichlorobenzyl)-pyrazole], the “Inhibition in % (reduction of thromb size)” value (4 hour period of action, vs control without active compound) amounted to 56%. For the same compound, the “Thromb size, mean value” (4 hours, 12 experiments, control 115 ± 12 (14 experiments)) was determined as 51 ± 10 µg.
